In the supplement of paper PMC10307832:

Assays:
Test in all cases: relative viability (nuclei count vs DMSO), 5 days (fraction); higher = more cells survive
A-427 = tested on: A-427
How it was run: (§1)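 After 5 days of treatment, lung cancer cells in 1536-well plates were fixed and stained in a single step (final 0.05% Triton X-100, 1% formaldehyde, 1 ug/ml Hoechst) and their nuclei counted on 4× images. Treatment had been applied by pin tool the day after seeding as one drug alone or as a fixed anchor-drug dose with five library-drug doses (not always all listed) in √10 steps. Relative viability is the nuclei count of treated wells divided by that of vehicle wells, and values are medians of duplicate plates.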

COR-L 105 = tested on: COR-L 105
How it was run: as §1

ChaGo-K-1 = tested on: ChaGo-K-1
How it was run: as §1

EKVX = tested on: EKVX
How it was run: as §1

EMC-BAC-2 = tested on: EMC-BAC-2
How it was run: as §1

H3255 = tested on: H3255
How it was run: as §1

HCC-366 = tested on: HCC-366
How it was run: as §1

LK-2 = tested on: LK-2
How it was run: as §1

LOU-NH91 = tested on: LOU-NH91
How it was run: as §1

NCI-H1666 = tested on: NCI-H1666
How it was run: as §1

NCI-H1734 = tested on: NCI-H1734
How it was run: as §1

NCI-H1755 = tested on: NCI-H1755
How it was run: as §1

NCI-H1975 = tested on: NCI-H1975
How it was run: as §1

NCI-H2170 = tested on: NCI-H2170
How it was run: as §1

NCI-H23 = tested on: NCI-H23
How it was run: as §1

NCI-H441 = tested on: NCI-H441
How it was run: as §1

NCI-H520 = tested on: NCI-H520
How it was run: as §1

NCI-H596 = tested on: NCI-H596
How it was run: as §1

PC-3 [JPC-3] = tested on: PC-3 [JPC-3]
How it was run: as §1

SK-MES-1 = tested on: SK-MES-1
How it was run: as §1

SW 900 = tested on: SW 900
How it was run: as §1

**Q.** What does the source list for O=c1cc(N2CCOCC2)oc2c(-c3cccc4c3sc3ccccc34)cccc12 + Cc1cc(Nc2cc(N3CCN(C)CC3)nc(Sc3ccc(NC(=O)C4CC4)cc3)n2)n[nH]1 [Tozasertib] (partner 0.1 µM)?
**A.** relative viability (A-427; first compound 0.01 µM): 0.232; relative viability (A-427; first compound 0.03162 µM): 0.201; relative viability (A-427; first compound 0.1 µM): 0.212; relative viability (A-427; first compound 0.3162 µM): 0.223; relative viability (A-427; first compound 1 µM): 0.212; relative viability (COR-L 105; first compound 0.01 µM): 0.346; relative viability (COR-L 105; first compound 0.03162 µM): 0.286; relative viability (COR-L 105; first compound 0.1 µM): 0.373; relative viability (COR-L 105; first compound 0.3162 µM): 0.303; relative viability (COR-L 105; first compound 1 µM): 0.299; relative viability (ChaGo-K-1; first compound 0.01 µM): 0.232; relative viability (ChaGo-K-1; first compound 0.03162 µM): 0.209; relative viability (ChaGo-K-1; first compound 0.1 µM): 0.198; relative viability (ChaGo-K-1; first compound 0.3162 µM): 0.222; relative viability (ChaGo-K-1; first compound 1 µM): 0.209; relative viability (EKVX; first compound 0.01 µM): 0.448; relative viability (EKVX; first compound 0.03162 µM): 0.332; relative viability (EKVX; first compound 0.1 µM): 0.441; relative viability (EKVX; first compound 0.3162 µM): 0.343; relative viability (EKVX; first compound 1 µM): 0.36; relative viability (EMC-BAC-2; first compound 0.01 µM): 0.303; relative viability (EMC-BAC-2; first compound 0.03162 µM): 0.29; relative viability (EMC-BAC-2; first compound 0.1 µM): 0.313; relative viability (EMC-BAC-2; first compound 0.3162 µM): 0.33; relative viability (EMC-BAC-2; first compound 1 µM): 0.304; relative viability (H3255; first compound 0.01 µM): 0.789; relative viability (H3255; first compound 0.03162 µM): 0.484; relative viability (H3255; first compound 0.1 µM): 0.709; relative viability (H3255; first compound 0.3162 µM): 0.593; relative viability (H3255; first compound 1 µM): 0.606; relative viability (HCC-366; first compound 0.01 µM): 0.123; relative viability (HCC-366; first compound 0.03162 µM): 0.125; relative viability (HCC-366; first compound 0.1 µM): 0.102; relative viability (HCC-366; first compound 0.3162 µM): 0.211; relative viability (HCC-366; first compound 1 µM): 0.121; relative viability (LK-2; first compound 0.01 µM): 0.164; relative viability (LK-2; first compound 0.03162 µM): 0.161; relative viability (LK-2; first compound 0.1 µM): 0.17; relative viability (LK-2; first compound 0.3162 µM): 0.166; relative viability (LK-2; first compound 1 µM): 0.17; relative viability (LOU-NH91; first compound 0.01 µM): 0.642; relative viability (LOU-NH91; first compound 0.03162 µM): 0.65; relative viability (LOU-NH91; first compound 0.1 µM): 0.655; relative viability (LOU-NH91; first compound 0.3162 µM): 0.697; relative viability (LOU-NH91; first compound 1 µM): 0.65; relative viability (NCI-H1666; first compound 0.01 µM): 0.512; relative viability (NCI-H1666; first compound 0.03162 µM): 0.56; relative viability (NCI-H1666; first compound 0.1 µM): 0.579; relative viability (NCI-H1666; first compound 0.3162 µM): 0.596; relative viability (NCI-H1666; first compound 1 µM): 0.567; relative viability (NCI-H1734; first compound 0.01 µM): 0.236; relative viability (NCI-H1734; first compound 0.03162 µM): 0.264; relative viability (NCI-H1734; first compound 0.1 µM): 0.307; relative viability (NCI-H1734; first compound 0.3162 µM): 0.259; relative viability (NCI-H1734; first compound 1 µM): 0.243; relative viability (NCI-H1755; first compound 0.01 µM): 0.592; relative viability (NCI-H1755; first compound 0.03162 µM): 0.669; relative viability (NCI-H1755; first compound 0.1 µM): 0.693; relative viability (NCI-H1755; first compound 0.3162 µM): 0.539; relative viability (NCI-H1755; first compound 1 µM): 0.542; relative viability (NCI-H1975; first compound 0.01 µM): 0.692; relative viability (NCI-H1975; first compound 0.03162 µM): 0.657; relative viability (NCI-H1975; first compound 0.1 µM): 0.958; relative viability (NCI-H1975; first compound 0.3162 µM): 0.746; relative viability (NCI-H1975; first compound 1 µM): 0.76; relative viability (NCI-H2170; first compound 0.01 µM): 0.741; relative viability (NCI-H2170; first compound 0.03162 µM): 0.673; relative viability (NCI-H2170; first compound 0.1 µM): 0.758; relative viability (NCI-H2170; first compound 0.3162 µM): 0.801; relative viability (NCI-H2170; first compound 1 µM): 0.707; relative viability (NCI-H23; first compound 0.01 µM): 0.363; relative viability (NCI-H23; first compound 0.03162 µM): 0.391; relative viability (NCI-H23; first compound 0.3162 µM): 0.31; relative viability (NCI-H23; first compound 1 µM): 0.351; relative viability (NCI-H441; first compound 0.01 µM): 0.671; relative viability (NCI-H441; first compound 0.03162 µM): 0.713; relative viability (NCI-H441; first compound 0.1 µM): 0.692; relative viability (NCI-H441; first compound 0.3162 µM): 0.658; relative viability (NCI-H441; first compound 1 µM): 0.719; relative viability (NCI-H520; first compound 0.01 µM): 0.38; relative viability (NCI-H520; first compound 0.03162 µM): 0.409; relative viability (NCI-H520; first compound 0.1 µM): 0.418; relative viability (NCI-H520; first compound 0.3162 µM): 0.438; relative viability (NCI-H520; first compound 1 µM): 0.442; relative viability (NCI-H596; first compound 0.01 µM): 0.834; relative viability (NCI-H596; first compound 0.03162 µM): 0.939; relative viability (NCI-H596; first compound 0.1 µM): 0.921; relative viability (NCI-H596; first compound 0.3162 µM): 0.865; relative viability (NCI-H596; first compound 1 µM): 1.03; relative viability (PC-3 [JPC-3]; first compound 0.01 µM): 0.855; relative viability (PC-3 [JPC-3]; first compound 0.03162 µM): 0.884; relative viability (PC-3 [JPC-3]; first compound 0.1 µM): 0.879; relative viability (PC-3 [JPC-3]; first compound 0.3162 µM): 0.842; relative viability (PC-3 [JPC-3]; first compound 1 µM): 0.852; relative viability (SK-MES-1; first compound 0.01 µM): 0.964; relative viability (SK-MES-1; first compound 0.03162 µM): 0.935; relative viability (SK-MES-1; first compound 0.1 µM): 1.05; relative viability (SK-MES-1; first compound 0.3162 µM): 0.897; relative viability (SK-MES-1; first compound 1 µM): 0.875; relative viability (SW 900; first compound 0.01 µM): 0.505; relative viability (SW 900; first compound 0.03162 µM): 0.651; relative viability (SW 900; first compound 0.1 µM): 0.656; relative viability (SW 900; first compound 0.3162 µM): 0.574; relative viability (SW 900; first compound 1 µM): 0.548
